# Test results taken from US20250332173A1, “COMPOUNDS AND METHODS FOR MODULATING NUCLEIC ACID SPLICING” (REMIX THERAPEUTICS INC., priority 2021, published 2025).
# Like-named read-outs stand apart in the source and are kept apart here.
# Assays:
# Target C = test: RT-qPCR splicing assay panel, Target C canonical junction (CJ) mRNA; format: cell-based, human; conditions: Homo sapiens
# Method in brief: (§1)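 Read-out is canonical exon-exon junction mRNA quantified by RT-qPCR against a GAPDH, GUSB or PPIA control. Cells (A673 or K562) received compound for 24 h, top final dose 10 uM in an 11-point 3-fold series.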
# MYB mRNA = test: RT-qPCR splicing assay, MYB canonical junction (CJ) and alternative junction (AJ) mRNA; format: cell-based, human; conditions: Homo sapiens; for AC50: increase in MYB alternative junction (AJ) mRNA, read-out: MYB AJ AC50
# Method in brief: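 A673 cells (normalized to PPIA) or K562 cells (normalized to GAPDH or GUSB) were treated 24 h at 37 °C with an 11-point 3-fold dilution series, top 10 uM, DMSO ≤0.25%. Cell lysates went to one-step RT-qPCR measuring canonical- and alternative-junction MYB or HTT transcripts.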
# SMN2 mRNA = test: RT-qPCR splicing assay, SMN2 canonical junction (CJ) mRNA; format: cell-based, human; conditions: Homo sapiens
# Method in brief: as §1
# [1] = test system: K562 (human chronic myelogenous leukemia) cells; test: Cell Titer Glo 2.0 cell viability assay; format: cell-based; conditions: K562 cells, 72 hours, Cell Titer Glo 2.0, read-out: K562 GI50
# [2] = canonical junction qPCR panel, Table 5, read-out: Target C (decrease in CJ mRNA levels, IC50)
# [3] = canonical junction qPCR panel, Table 5, read-out: MYB (decrease in CJ mRNA levels, IC50)
# [4] = decrease in MYB canonical junction (CJ) mRNA, RT-qPCR, read-out: MYB CJ IC50
# [5] = canonical junction qPCR panel, Table 5, read-out: SMN2 (decrease in CJ mRNA levels, IC50)
# [6] = Table 5 panel, canonical junction qPCR, compound concentration having 50% response in CJ decrease, read-out: Target C IC50 (decrease in CJ mRNA levels)
# [7] = Table 5 panel, canonical junction qPCR, compound concentration having 50% response in CJ decrease, read-out: MYB IC50 (decrease in CJ mRNA levels)
# [8] = Table 5 panel, canonical junction qPCR, compound concentration having 50% response in CJ decrease, read-out: SMN2 IC50 (decrease in CJ mRNA levels)
SMILES,IC50 (Target C; [2]) [nM],IC50 (MYB mRNA; [3]) [nM],IC50 (MYB mRNA; [4]) [nM],AC50 (MYB mRNA; RT-qPCR) [nM],IC50 (SMN2 mRNA; [5]) [nM],"GI50 ([1]; Homo sapiens, K562, 72 h) [nM]",IC50 (Target C; [6]) [nM],IC50 (MYB mRNA; [7]) [nM],IC50 (SMN2 mRNA; [8]) [nM],GI50 [1] [nM]
Cc1cn2nc(-c3ccc4c(=O)n(C5CCNC6(CCC6)C5)ncc4n3)cc(C)c2n1 (stereo not drawn) [Compound 1553],1000 to 10000,1000 to 10000,1000 to 10000,1000 to 10000,100 to 1000,1000 to 10000,,,,
"Cc1cn2nc(-c3ccc4c(=O)n([C@H]5CCN(C)[C@@H](C)C5)ncc4n3)cc(C)c2n1 [Compound 1528, 2-(2,8-dimethylimidazo[1,2-b]pyridazin-6-yl)-6-(1,2-dimethyl-4-piperidyl)pyrido[2,3-d]pyridazin-5-one]",100 to 1000,100 to 1000,100 to 1000,100 to 1000,100 to 1000,100 to 1000,,,,
"COc1cc(-c2ccc3c(=O)n([C@H]4CCN[C@@H](C)C4)ccc3n2)nn2cc(C)nc12 [Compound 1519, 2-(8-methoxy-2-methyl-imidazo[1,2-b]pyridazin-6-yl)-6-[(2S,4S)-2-methyl-4-piperidyl]-1,6-naphthyridin-5-one]",100 to 1000,100 to 1000,100 to 1000,100 to 1000,< 100,100 to 1000,,,,
"Cc1cc(-c2ccc3c(c2)CCN(C2CCNCC2)C3=O)cc2cn(C)nc12 [Compound 219, 6-(2,7-dimethylindazol-5-yl)-2-(piperidin-4-yl)-3,4-dihydroisoquinolin-1-one]",,,100 to 1000,100 to 1000,,1000 to 10000,1000 to 10000,100 to 1000,< 100,
"Cc1cn2cc(-c3ccc4c(c3)CCN(C3CCNCC3)C4=O)cc(Cl)c2n1 [Compound 216, 6-[8-chloro-2-methylimidazo[1,2-a]pyridin-6-yl]-2-(piperidin-4-yl)-3,4-dihydroisoquinolin-1-one]",,,1000 to 10000,100 to 1000,,100 to 1000,1000 to 10000,100 to 1000,< 100,
"Cc1cn2nc(-c3ccc4c(=O)n([C@@H]5CCNC6(CCC6)C5)ncc4n3)cc(C)c2n1 [Compound 1545, 6-[(8R)-5-azaspiro[3.5]nonan-8-yl]-2-(2,8-dimethylimidazo[1,2-b]pyridazin-6-yl)pyrido[2,3-d]pyridazin-5-one]",100 to 1000,100 to 1000,100 to 1000,100 to 1000,< 100,100 to 1000,,,,
Cc1c(O)c(-c2ncc3c(=O)n([C@@H]4CC[C@H](N)C4)ccc3n2)cc2cn(C)nc12 [Compound 1477],100 to 1000,< 100,< 100,< 100,< 100,,,,,< 100
"Cc1cn2cc(-c3ncc4c(=O)n(C56CCC(N)(CC5)C6)ccc4n3)cc(F)c2n1 [Compound 1469, 6-(4-aminonorbornane-1-yl)-2-(8-fluoro-2-methyl-imidazo[1,2-a]pyridin-6-yl)pyrido[4,3-d]pyrimidin-5-one]",100 to 1000,100 to 1000,100 to 1000,100 to 1000,< 100,100 to 1000,,,,
CN1CCC(n2cnc3cc(-c4ccc5nn(C)cc5c4)ccc3c2=O)CC1 [Compound 208],,,1000 to 10000,1000 to 10000,,1000 to 10000,> 10000,1000 to 10000,100 to 1000,
"Cc1cn2cc(-c3ccc4c(c3)CCN(C3CCNCC3)C4=O)c(C)cc2n1 [Compound 218, 6-[2,7-dimethylimidazo[1,2-a]pyridin-6-yl]-2-(piperidin-4-yl)-3,4-dihydroisoquinolin-1-one]",,,1000 to 10000,1000 to 10000,,1000 to 10000,1000 to 10000,1000 to 10000,1000 to 10000,
"Cc1cn2nc(-c3ccc4c(=O)n(C5C[C@@H](C)N[C@H](C)C5)ncc4n3)cc(C)c2n1 (stereo in doubt) [Compound 1537, 2-(2,8-dimethylimidazo[1,2-b]pyridazin-6-yl)-6-[(2R,6R)-2,6-dimethyl-4-piperidyl]pyrido[2,3-d]pyridazin-5-one]",100 to 1000,100 to 1000,100 to 1000,100 to 1000,< 100,100 to 1000,,,,
"Cc1c(O)c(-c2ccc3c(=O)n([C@@H]4C[C@@H](C)N[C@@H](C)C4)ccc3n2)cc2cn(C)nc12 [Compound 1463, 6-[(2S,6R)-2,6-dimethyl-4-piperidyl]-2-(6-hydroxy-2,7-dimethyl-indazol-5-yl)-1,6-naphthyridin-5-one]",1000 to 10000,100 to 1000,100 to 1000,100 to 1000,< 100,100 to 1000,,,,
Cc1cn2cc(-n3cnc4cc(N5CCN(C)CC5)ccc4c3=O)cc(F)c2n1 [Compound 229],,,> 10000,> 10000,,> 10000,> 10000,> 10000,> 10000,
Cc1nc2c(F)cc(-c3ccc4c(c3)CCN(C3CCNCC3)C4=O)cc2s1 [Compound 226],,,1000 to 10000,1000 to 10000,,1000 to 10000,> 10000,1000 to 10000,100 to 1000,
Cc1cc(-c2ccc3ncn(C4CCNCC4)c(=O)c3c2)cc2cn(C)nc12 [Compound 2169],> 10000,> 10000,> 10000,> 10000,> 10000,> 10000,,,,
Cc1cc(-c2cc(F)c3c(=O)n(C4CCNCC4)cnc3c2)cc2cn(C)nc12 [Compound 232],,,< 100,< 100,,100 to 1000,100 to 1000,< 100,< 100,
"Cc1c(O)c(-c2ccc3c(=O)n([C@H]4C[C@@H](C)N[C@@H](C)C4)ccc3n2)cc2cn(C)nc12 [Compound 1464, 6-[(2S,6R)-2,6-dimethyl-4-piperidyl]-2-(6-hydroxy-2,7-dimethyl-indazol-5-yl)-1,6-naphthyridin-5-one]",1000 to 10000,< 100,100 to 1000,< 100,< 100,< 100,,,,
Cc1cn2nc(-c3ccc4c(=O)n([C@@H]5CCN(C)[C@H](C)C5)ncc4n3)cc(C)c2n1 [Compound 1527],100 to 1000,100 to 1000,100 to 1000,100 to 1000,< 100,100 to 1000,,,,
Cc1cc(-c2ccc3c(=O)n(C4CCN(C)CC4)cnc3c2F)cc2cn(C)nc12 [Compound 235],,,> 10000,> 10000,,1000 to 10000,> 10000,> 10000,100 to 1000,
Cc1cc(-c2ccc3c(=O)n(C4CCNCC4)cnc3c2F)cc2cn(C)nc12 [Compound 234],,,1000 to 10000,1000 to 10000,,1000 to 10000,> 10000,1000 to 10000,< 100,
"O=C1c2ccc(-c3cn[nH]c3)cc2CCN1C1CCNCC1 [Compound 220, 2-(piperidin-4-yl)-6-(1H-pyrazol-4-yl)-3,4-dihydroisoquinolin-1-one]",,,> 10000,> 10000,,> 10000,> 10000,> 10000,> 10000,
Cc1c(O)c(-c2ncc3c(=O)n([C@@H]4C[C@H]5COC[C@@H](C4)N5)ccc3n2)cc2cn(C)nc12 [Compound 1471],100 to 1000,< 100,< 100,< 100,< 100,100 to 1000,,,,
